Laboratory results from patent US5855906A, “Intravaginal drug delivery devices for the administration of 17β-oestradiol precursors” (priority 1994, dated 1999).
≈ marks a conversion by molar mass, not a printed value. Entries after “also recorded” stand apart in the source; their conditions may differ.

Key:
[1] = In vitro dissolution: mean daily release from full-length-core rings over up to 90 days in three media; type: physicochemical; parameters: key to Mean Daily Release: **: Not detected; details: 9 × 54 mm ring, core 141 × 2 mm, 37 °C, N = 4
Description: In all cases the ring geometries comprise a ring of dimensions 9 mm (cross-sectional diameter)×54 mm (outer diameter) and containing a full length core (141 mm) of cross-sectional diameter 2 mm. […] The saline and benzalkonium chloride-containing media were chosen to ensure `sink conditions` in at least one medium for each intravaginal ring. It will be recognised by those skilled in the art that the term `sink conditions` refers to that set of experimental conditions in vitro which effectively simulates the active haemoperfusion that occurs in vivo, and which results in a maximum drug concentration gradient and maximum drug diffusion rate, at any given time, across the aqueous boundary layer. Thus, an in vitro dissolution experiment can be designed such that the solution solubility of the released drug in the dissolution medium is much greater than its bulk concentration in this medium at any given time, for example, by micellar drug solubilisation due to incorporation of a surfactant such as benzalkonium chloride (BKC), at a concentration above its critical micelle concentration. Thus, each ring was suspended by a thread in an individual closed flask containing the dissolution medium, maintained at a constant temperature of 37° C. The contents of the flask were gently agitated in order to prevent the occurrence of a hydrostatic layer on the surface of the ring. After 24 hours, the ring was removed and suspended in a flask of fresh dissolution medium of identical volume by a method identical to that previously described.

[2] = In vitro release from rings of varying core length and apparent/standard k value (Crank's equation); type: physicochemical; parameters: Standard k: unit not given here; details: for Mean Daily Release / Standard k: Table 4; for Mean Daily Release / Mean Daily Release (as precursor): n = 5; for k (standard k) / k (using core of 141 mm length): Table 5; for k: in µg/day/mm; for Mean Daily Release (as precursor): 250 ml 1% (w/v) BKC
Description: Precursor release from a cylindrical device of core design, which comprises a polymer matrix in the form of a core incorporating 17β-oestradiol precursor and a sheath surrounding the core, can be described by Crank's equation: [formula] in which R=precursor release rate (μg/day)
Crank's equation relates the precursor release rate (R), in sink conditions, to the solubility (C2 S) and diffusibility (D) of the precursor in the polymer matrix, its partition characteristics (π) between the polymer matrix and the dissolution medium; and the ring dimensions (l, b, a). For any given precursor in any given polymer matrix, CS, D and π will be constant and can be grouped together to form the composite constant, k:
The k value can be empirically derived using Crank's equation in the following manner: [formula]
The k value is dependent on core length for certain of the 17β-oestradiol precursors (see Example 6 hereinafter). Accordingly, the k value at a core length of 35 mm has been denoted "standard k" value hereinafter.
Intravaginal drug delivery devices in the form of rings were prepared, each with a ring geometry as described in Table 3, by following the General Method of Manufacture set out hereinabove.
The dissolution medium was changed daily, following the protocol set out hereinabove. Mean daily release rates from the second week of dissolution experiments were used to determine the apparent k values presented in Table 3.
It was, therefore, decided to determine k values at a core length of 35 mm and such k values are hereinafter referred to as "standard k" values.
The standard k value was determined from the mean daily release rates observed in Example 6. The dissolution medium of 1.0% (w/v) of an aqueous solution of benzalkonium chloride was used in respect of the various 17β-oestradiol precursors, so as to ensure sink conditions.

physchem = details: distilled water
[3] = Silicone solubility at 37 °C in Dow Corning 360 medical fluid; type: physicochemical; details: organic solvent or mixture
Description: Silicone solubility was determined at 37° C. in Dow Corning (Trade Mark) 360 medical fluid.

[4] = compiled from Novel Drug Delivery Systems (Chien); cited from earlier work
[5] = Aqueous solubility in distilled water at 20 °C; details: 20 °C
[6] = shell ring, 58 mm × 9.5 mm; cited from earlier work
[7] = 1.0% (w/v) BKC, core length 35 mm
[8] = core length 35 mm, 1.0% (w/v) BKC
[9] = core length 35 mm, 1% (w/v) BKC
[10] = core length 70 mm, 1% (w/v) BKC
[11] = core length 140 mm, 1% (w/v) BKC

Structure (SMILES)	Mean Daily Release ([1]; 0.133% (w/v) BKC) [μg per day]	Mean Daily Release ([1]; 0.9% (w/v) saline)	Mean Daily Release ([1]; 1.0% (w/v) BKC) [μg per day]	Mean Daily Release [2, 7] [µg/day]	Standard k [2, 8]	k (standard k) ([2]; core length 35 mm) [μg/day/mm]	k [2, 9]	Mean Daily Release (as precursor) ([2]; core length 35 mm) [µg/day]	k [2, 10]	Mean Daily Release (as precursor) ([2]; core length 70 mm) [µg/day]	k [2, 11]	Mean Daily Release (as precursor) ([2]; core length 140 mm) [µg/day]	solubility (physchem) [µg/mL]	k (using core of 141 mm length) [2] [μg/day/mm]	Silicone solubility [4] [mg/100 ml]	requisite aqueous solubility (not less than 1 μg per 100 ml) [5]	also measured
CCC(=O)O[C@H]1CC[C@H]2[C@@H]3CCc4cc(O)ccc4[C@H]3CC[C@]12C	112	26 μg per day	218	42.86	1.842	1.842	1.842	42.86	1.795	83.54	1.667	155.20	0.05 (≈ 0.152 µM)	–	–	–	apparent k value versus core length ([2]; Table 3 rings, 1% (w/v) BKC): varies with core length; k ([2]; core length 17 mm, 1% (w/v) BKC): 2.130; Mean Daily Release (as precursor) ([2]; core length 17 mm): 24.08 µg/day
CCC(=O)Oc1ccc2c(c1)CC[C@@H]1[C@@H]2CC[C@]2(C)[C@@H](O)CC[C@@H]12	–	–	1200	300.00	12.89	12.89	12.89	300.00	12.89	600.00	12.89	1200.00	2.3 (≈ 7 µM)	–	–	–	Mean Daily Release ([2]; 0.9% (w/v) saline, core length 35 mm): 250 to 350 µg/day; solubility [3]: 300 µg/mL (≈ 913 µM)
CCCCC(=O)O[C@H]1CC[C@H]2[C@@H]3CCc4cc(O)ccc4[C@H]3CC[C@]12C [17β-oestradiol-17-valerate, reference compound]	365	**	550	–	–	–	–	–	–	–	–	–	–	5.86	15.02	too low; also recorded: not possessing the requisite aqueous solubility	–
C#C[C@]1(O)CC[C@H]2[C@@H]3CCC4=CC(=O)CC[C@@H]4[C@H]3CC[C@@]21CC [levonorgestrel]	–	–	–	–	–	–	–	–	–	–	–	–	–	–	–	–	daily release [6]: 290 μg per day
C[C@]12CC[C@@H]3c4ccc(OC(=O)c5ccccc5)cc4CC[C@H]3[C@@H]1CC[C@@H]2O [reference compound]	42	< 5 μg per day	66	–	–	–	–	–	–	–	–	–	–	0.70	3.68	not possessing the requisite aqueous solubility	–
